Results from US20220119354A1, “DIAMINO-SUBSTITUTED PYRIDINES AND PYRIMIDINES AS HERBICIDES” (FMC Corporation, priority 2019, published 2022).

How the values were obtained:
Format in all cases: in vivo
[1] = tested on: ryegrass, Italian (Lolium multiflorum); assay: Test A postemergence, Italian ryegrass; details: 0 to 100 scale, 0 no effect, 100 complete control
How it was run: (§1)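 Compound, in a non-phytotoxic solvent blend containing surfactant, is sprayed onto soil immediately after sowing or onto young plants (one- to two-leaf, 2–10 cm). After roughly 10 d under greenhouse conditions, injury is judged by eye relative to untreated plants on a 0–100 control scale.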

[2] = tested on: pigweed (Amaranthus retroflexus); assay: Test A postemergence, pigweed; details: 0 to 100 scale, 0 no effect, 100 complete control
How it was run: as §1

[3] = tested on: ducksalad (Heteranthera limosa); assay: Test B flooded paddy test, ducksalad; details: Flood, 250 g ai/ha, applied to paddy water, 2-leaf stage, visual evaluation after 13 to 15 d
How it was run: (§2)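 Pots flooded to 3 cm above the soil when treated, with test compound added straight to the water and the flood maintained. Treated plants were at the 2-leaf stage and stayed 13–15 d in greenhouse. Response versus untreated controls scored visually from 0 (no effect) to 100 (complete control).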

kochia (Kochia scoparia) [4] = assay: Test A preemergence, kochia; details: 0 to 100 scale, 0 is no effect, 100 is complete control
How it was run: as §1

[5] = tested on: ragweed (common ragweed, Ambrosia elatior); assay: Test A postemergence, ragweed; details: 0 to 100 scale, 0 no effect, 100 complete control
How it was run: as §1

[6] = tested on: ryegrass, Italian (Lolium multiflorum); assay: Test A preemergence, Italian ryegrass; details: 0 to 100 scale, 0 is no effect, 100 is complete control
How it was run: as §1

corn (Zea mays) = assay: Test A postemergence, corn; details: 0 to 100 scale, 0 no effect, 100 complete control
How it was run: as §1

[7] = tested on: barnyardgrass (Echinochloa crus-galli); assay: Test A preemergence, barnyardgrass; details: 0 to 100 scale, 0 is no effect, 100 is complete control
How it was run: as §1

[8] = tested on: foxtail, giant (Setaria faberii); assay: Test A postemergence, giant foxtail; details: 0 to 100 scale, 0 no effect, 100 complete control
How it was run: as §1

rice (Oryza sativa) = assay: Test B flooded paddy test, rice; details: Flood, 250 g ai/ha, applied to paddy water, 2-leaf stage, visual evaluation after 13 to 15 d
How it was run: as §2

[9] = tested on: ragweed (common ragweed, Ambrosia elatior); assay: Test A preemergence, ragweed; details: 0 to 100 scale, 0 is no effect, 100 is complete control
How it was run: as §1

[10] = tested on: barnyardgrass (Echinochloa crus-galli); assay: Test B flooded paddy test, barnyardgrass; details: Flood, 250 g ai/ha, applied to paddy water, 2-leaf stage, visual evaluation after 13 to 15 d
How it was run: as §2

[11] = tested on: barnyardgrass (Echinochloa crus-galli); assay: Test A postemergence, barnyardgrass; details: 0 to 100 scale, 0 no effect, 100 complete control
How it was run: as §1

[12] = tested on: blackgrass (Alopecurus myosuroides); assay: Test A postemergence, blackgrass; details: 0 to 100 scale, 0 no effect, 100 complete control
How it was run: as §1

[13] = tested on: wheat (Triticum aestivum); assay: Test A postemergence, wheat; details: 0 to 100 scale, 0 no effect, 100 complete control
How it was run: as §1

[14] = tested on: pigweed (Amaranthus retroflexus); assay: Test A preemergence, pigweed; details: 0 to 100 scale, 0 is no effect, 100 is complete control
How it was run: as §1

[15] = tested on: sedge, umbrella (small-flower umbrella sedge, Cyperus difformis); assay: Test B flooded paddy test, umbrella sedge; details: Flood, 250 g ai/ha, applied to paddy water, 2-leaf stage, visual evaluation after 13 to 15 d
How it was run: as §2

[16] = tested on: galium (catchweed bedstraw, Galium aparine); assay: Test A postemergence, galium; details: 0 to 100 scale, 0 no effect, 100 complete control
How it was run: as §1

[17] = tested on: foxtail, giant (Setaria faberii); assay: Test A preemergence, giant foxtail; details: 0 to 100 scale, 0 is no effect, 100 is complete control
How it was run: as §1

kochia (Kochia scoparia) [18] = assay: Test A postemergence, kochia; details: 0 to 100 scale, 0 no effect, 100 complete control
How it was run: as §1

Compound	Plant response rating, Ryegrass, Italian ([1]; 125 g ai/ha)	Plant response rating, Pigweed ([2]; 125 g ai/ha)	Plant response rating, Ducksalad (0 to 100 scale, 0 is no effect, 100 is complete control) [3]	Kochia plant response rating (kochia (Kochia scoparia) [4]; 125 g ai/ha)	Plant response rating, Ragweed ([5]; 125 g ai/ha)	Ryegrass, Italian plant response rating ([6]; 125 g ai/ha)	Plant response rating, Corn (corn (Zea mays); 125 g ai/ha)	Barnyardgrass plant response rating ([7]; 125 g ai/ha)	Plant response rating, Foxtail, Giant ([8]; 125 g ai/ha)	Plant response rating, Rice (0 to 100 scale, 0 is no effect, 100 is complete control) (rice (Oryza sativa))	Ragweed plant response rating ([9]; 125 g ai/ha)	Plant response rating, Barnyardgrass (0 to 100 scale, 0 is no effect, 100 is complete control) [10]	Plant response rating, Barnyardgrass ([11]; 125 g ai/ha)	Plant response rating, Blackgrass ([12]; 125 g ai/ha)	Plant response rating, Wheat ([13]; 125 g ai/ha)	Pigweed plant response rating ([14]; 125 g ai/ha)	Plant response rating, Sedge, Umbrella (0 to 100 scale, 0 is no effect, 100 is complete control) [15]	Plant response rating, Galium ([16]; 125 g ai/ha)	Foxtail, Giant plant response rating ([17]; 125 g ai/ha)	Plant response rating, Kochia (kochia (Kochia scoparia) [18]; 125 g ai/ha)	further results
CC[C@H](Nc1ncc(C(F)(F)F)c(N)n1)c1cc2ccc(F)cc2o1 [Compound 64]	0	20	0	0	0	0	0	0	0	0	0	0	0	0	0	0	0	0	0	0	Plant response rating, Ryegrass, Italian ([1]; 500 g ai/ha): 0; Plant response rating, Pigweed ([2]; 500 g ai/ha): 60; Kochia plant response rating (kochia (Kochia scoparia) [4]; 500 g ai/ha): 0; Plant response rating, Ragweed ([5]; 500 g ai/ha): 20; Ryegrass, Italian plant response rating ([6]; 500 g ai/ha): 0; Plant response rating, Corn (corn (Zea mays); 500 g ai/ha): 0; Barnyardgrass plant response rating ([7]; 500 g ai/ha): 0; Plant response rating, Foxtail, Giant ([8]; 500 g ai/ha): 0; Ragweed plant response rating ([9]; 500 g ai/ha): 0; Plant response rating, Barnyardgrass ([11]; 500 g ai/ha): 20; Plant response rating, Blackgrass ([12]; 500 g ai/ha): 0; Plant response rating, Wheat ([13]; 500 g ai/ha): 0; Pigweed plant response rating ([14]; 500 g ai/ha): 0; Plant response rating, Galium ([16]; 500 g ai/ha): 30; Foxtail, Giant plant response rating ([17]; 500 g ai/ha): 0; Plant response rating, Kochia (kochia (Kochia scoparia) [18]; 500 g ai/ha): 30
Nc1nc(N[C@@H](c2coc3ccccc23)C2CC2)ncc1C(F)(F)F [Compound 79, N2-[(R)-3-benzofuranylcyclopropylmethyl]-5-(trifluoromethyl)-2,4-pyrimidinediamine]	60	100	98	0	80	100	0	90	60	10	100	55	70	60	0	90	95	70	100	90	Plant response rating, Ryegrass, Italian ([1]; 500 g ai/ha): 80; Plant response rating, Pigweed ([2]; 500 g ai/ha): 100; Kochia plant response rating (kochia (Kochia scoparia) [4]; 500 g ai/ha): 0; Plant response rating, Ragweed ([5]; 500 g ai/ha): 90; Ryegrass, Italian plant response rating ([6]; 500 g ai/ha): 100; Plant response rating, Corn (corn (Zea mays); 500 g ai/ha): 70; Barnyardgrass plant response rating ([7]; 500 g ai/ha): 100; Plant response rating, Foxtail, Giant ([8]; 500 g ai/ha): 90; Ragweed plant response rating ([9]; 500 g ai/ha): 100; Plant response rating, Barnyardgrass ([11]; 500 g ai/ha): 100; Plant response rating, Blackgrass ([12]; 500 g ai/ha): 90; Plant response rating, Wheat ([13]; 500 g ai/ha): 20; Pigweed plant response rating ([14]; 500 g ai/ha): 100; Plant response rating, Galium ([16]; 500 g ai/ha): 90; Foxtail, Giant plant response rating ([17]; 500 g ai/ha): 100; Plant response rating, Kochia (kochia (Kochia scoparia) [18]; 500 g ai/ha): 90
C[C@@H](Nc1nc(N)c(C(F)(F)F)c(C(F)F)n1)c1cc2ccccc2s1 [Compound 109]	0	90	65	90	60	40	0	0	20	20	90	35	0	10	0	90	75	70	30	70	Plant response rating, Ryegrass, Italian ([1]; 31 g ai/ha): 0; Plant response rating, Pigweed ([2]; 31 g ai/ha): 80; Kochia plant response rating (kochia (Kochia scoparia) [4]; 31 g ai/ha): 80; Plant response rating, Ragweed ([5]; 31 g ai/ha): 50; Ryegrass, Italian plant response rating ([6]; 31 g ai/ha): 20; Plant response rating, Corn (corn (Zea mays); 31 g ai/ha): 0; Barnyardgrass plant response rating ([7]; 31 g ai/ha): 0; Plant response rating, Foxtail, Giant ([8]; 31 g ai/ha): 0; Ragweed plant response rating ([9]; 31 g ai/ha): 30; Plant response rating, Barnyardgrass ([11]; 31 g ai/ha): 0; Plant response rating, Blackgrass ([12]; 31 g ai/ha): 10; Plant response rating, Wheat ([13]; 31 g ai/ha): 0; Pigweed plant response rating ([14]; 31 g ai/ha): 70; Plant response rating, Galium ([16]; 31 g ai/ha): 40; Foxtail, Giant plant response rating ([17]; 31 g ai/ha): 0; Plant response rating, Kochia (kochia (Kochia scoparia) [18]; 31 g ai/ha): 50
